Patent US4946835A (priority 1988, dated 1990)
Converted amounts (≈) assume the structure as drawn. Where two headings read alike, the source gives them in different places.

Legend:
Cryptococcus neoformans [1] = test: agar dilution assay (MIC) against two strains of Cryptococcus neoformans; format: cell-based; details: yeast nitrogen base dextrose agar
Experimental: (§1) Such activity may be illustrated with test results against Cryptococcus neoformans employing yeast nitrogen base dextrose agar medium. In carrying out the assay, Compound I was solubilized in 10 percent dimethyl sulfoxide (DMSO) supplemented with one drop of Tween 20. Twofold dilutions were made with sterile distilled water/10 percent DMSO to obtain final drug concentrations in the agar dilution assay plates ranging from 128 to 0.06 μg/ml against two strains of Cryptococcus neoformans and subsequently against an expanded panel of 84 Cryptococcus strains at concentrations ranging from 0.008 to 16.0 μg/ml.
(§2) Nystatin or amphotericin B was used as a positive control. For the assay, nystatin was solubilized in 10 percent dimethylformamide and diluted in sterile distilled water; amphotericin B was solubilized by expressing water directly into a lyophilized cake and shaking until the colloidal solution was clear and then diluted in sterile distilled water. The final drug concentrations ranged from 0.063 to 128 μg/ml.
The minimum inhibitory concentration (MIC) against the organisms employed on the standard assay were as follows: […]

Aspergillus niger = test: disk diffusion assay, Aspergillus niger; format: cell-based; design: key: fuzzy (F)--a zone that had a fuzzy edge and clear center surrounding the disc; hazy (H)--a zone that was hazy throughout; slightly hazy (S)--a zone in which low levels of growth were discernible throughout the inhibition zone; very hazy (V)--a zone in which the differences between the background lawn and inhibition zone were barely discernible; details: appearance of inhibition zone
Experimental: (§3) The broad antifungal activity of Compound I against fungi may be illustrated with representative assay results in a disk diffusion assay. Filamentous fungi used in the assays were prepared from stock cultures which had been maintained on potato dextrose agar (Difco) and transferred serially at two week intervals using standard microbiological techniques. Yeast used were prepared from stock cultures of strains of yeast which had been maintained frozen at -80° C. in 20 percent aqueous glycerol.
(§4) Seeded agar assay plates were prepared according to the type of assay strain. Inoculum for filamentous fungi was prepared by scraping the surface of stock plates with a moistened sterile dacron swab. The spores and mycelia were then suspended in 10 milliliters of sterile potato dextrose broth (PDB) and adjusted to 70% transmittance (T) at 660 nm. Inoculum for Cryptococcus was prepared from overnight broth cultures. Cultures were then diluted into PDB to a final concentration of either 40% or 70% T at 660 nm. Assay plates were prepared by diluting the inoculum into appropriate molten agar medium, and thereafter cooled to 45° C., to yield a final concentration of 4 percent.
(§5) Samples were applied to 6.2 mm filter paper disks (25 μl disk) and air dried at 24° C. […]
(§6) Following incubation, inhibition zones were measured and recorded. […]

Trichoderma lignorum = test: disk diffusion assay, Trichoderma lignorum; format: cell-based; design: key: fuzzy (F)--a zone that had a fuzzy edge and clear center surrounding the disc; hazy (H)--a zone that was hazy throughout; slightly hazy (S)--a zone in which low levels of growth were discernible throughout the inhibition zone; very hazy (V)--a zone in which the differences between the background lawn and inhibition zone were barely discernible; details: appearance of inhibition zone
Experimental: as §3, §4, §5, §6

Phoma sp. = test: disk diffusion assay, Phoma sp.; format: cell-based; design: key: fuzzy (F)--a zone that had a fuzzy edge and clear center surrounding the disc; hazy (H)--a zone that was hazy throughout; slightly hazy (S)--a zone in which low levels of growth were discernible throughout the inhibition zone; very hazy (V)--a zone in which the differences between the background lawn and inhibition zone were barely discernible; details: appearance of inhibition zone
Experimental: as §3, §4, §5, §6

Staphylococcus species = test: activity against bacteria (statement), Staphylococcus; format: cell-based
Penicillium sp. = test: disk diffusion assay, Penicillium sp.; format: cell-based; design: key: fuzzy (F)--a zone that had a fuzzy edge and clear center surrounding the disc; hazy (H)--a zone that was hazy throughout; slightly hazy (S)--a zone in which low levels of growth were discernible throughout the inhibition zone; very hazy (V)--a zone in which the differences between the background lawn and inhibition zone were barely discernible; details: appearance of inhibition zone
Experimental: as §3, §4, §5, §6

solubility = details: organic solvents
Serratia species = test: activity against bacteria (statement), Serratia; format: cell-based
Ustilago zea = test: disk diffusion assay, Ustilago zea; format: cell-based; design: key: fuzzy (F)--a zone that had a fuzzy edge and clear center surrounding the disc; hazy (H)--a zone that was hazy throughout; slightly hazy (S)--a zone in which low levels of growth were discernible throughout the inhibition zone; very hazy (V)--a zone in which the differences between the background lawn and inhibition zone were barely discernible; details: appearance of inhibition zone
Experimental: as §3, §4, §5, §6

Aspergillus flavus = test: disk diffusion assay, Aspergillus flavus; format: cell-based; design: key: fuzzy (F)--a zone that had a fuzzy edge and clear center surrounding the disc; hazy (H)--a zone that was hazy throughout; slightly hazy (S)--a zone in which low levels of growth were discernible throughout the inhibition zone; very hazy (V)--a zone in which the differences between the background lawn and inhibition zone were barely discernible; details: appearance of inhibition zone
Experimental: as §3, §4, §5, §6

Cercospora beticola = test: disk diffusion assay, Cercospora beticola; format: cell-based; design: key: fuzzy (F)--a zone that had a fuzzy edge and clear center surrounding the disc; hazy (H)--a zone that was hazy throughout; slightly hazy (S)--a zone in which low levels of growth were discernible throughout the inhibition zone; very hazy (V)--a zone in which the differences between the background lawn and inhibition zone were barely discernible; details: appearance of inhibition zone
Experimental: as §3, §4, §5, §6

Erwinia species = test: activity against bacteria (statement), Erwinia; format: cell-based
Botrytis allii = test: disk diffusion assay, Botrytis allii; format: cell-based; design: key: fuzzy (F)--a zone that had a fuzzy edge and clear center surrounding the disc; hazy (H)--a zone that was hazy throughout; slightly hazy (S)--a zone in which low levels of growth were discernible throughout the inhibition zone; very hazy (V)--a zone in which the differences between the background lawn and inhibition zone were barely discernible; details: appearance of inhibition zone
Experimental: as §3, §4, §5, §6

Cryptococcus albidus = test: disk diffusion assay, Cryptococcus albidus; format: cell-based; design: key: fuzzy (F)--a zone that had a fuzzy edge and clear center surrounding the disc; hazy (H)--a zone that was hazy throughout; slightly hazy (S)--a zone in which low levels of growth were discernible throughout the inhibition zone; very hazy (V)--a zone in which the differences between the background lawn and inhibition zone were barely discernible; details: appearance of inhibition zone
Experimental: as §3, §4, §5, §6

Scopulariopsis communes = test: disk diffusion assay, Scopulariopsis communes; format: cell-based; design: key: fuzzy (F)--a zone that had a fuzzy edge and clear center surrounding the disc; hazy (H)--a zone that was hazy throughout; slightly hazy (S)--a zone in which low levels of growth were discernible throughout the inhibition zone; very hazy (V)--a zone in which the differences between the background lawn and inhibition zone were barely discernible; details: appearance of inhibition zone
Experimental: as §3, §4, §5, §6

Rhizomucor miehei = test: disk diffusion assay, Rhizomucor miehei; format: cell-based; design: key: fuzzy (F)--a zone that had a fuzzy edge and clear center surrounding the disc; hazy (H)--a zone that was hazy throughout; slightly hazy (S)--a zone in which low levels of growth were discernible throughout the inhibition zone; very hazy (V)--a zone in which the differences between the background lawn and inhibition zone were barely discernible; details: appearance of inhibition zone
Experimental: as §3, §4, §5, §6

Trichoderma sp. = test: disk diffusion assay, Trichoderma sp.; format: cell-based; design: key: fuzzy (F)--a zone that had a fuzzy edge and clear center surrounding the disc; hazy (H)--a zone that was hazy throughout; slightly hazy (S)--a zone in which low levels of growth were discernible throughout the inhibition zone; very hazy (V)--a zone in which the differences between the background lawn and inhibition zone were barely discernible; details: appearance of inhibition zone
Experimental: as §3, §4, §5, §6

Aspergillus fumigatus = test: disk diffusion assay, Aspergillus fumigatus; format: cell-based; design: key: fuzzy (F)--a zone that had a fuzzy edge and clear center surrounding the disc; hazy (H)--a zone that was hazy throughout; slightly hazy (S)--a zone in which low levels of growth were discernible throughout the inhibition zone; very hazy (V)--a zone in which the differences between the background lawn and inhibition zone were barely discernible; details: appearance of inhibition zone
Experimental: as §3, §4, §5, §6

Cephalosporium sp. = test: disk diffusion assay, Cephalosporium sp.; format: cell-based; design: key: fuzzy (F)--a zone that had a fuzzy edge and clear center surrounding the disc; hazy (H)--a zone that was hazy throughout; slightly hazy (S)--a zone in which low levels of growth were discernible throughout the inhibition zone; very hazy (V)--a zone in which the differences between the background lawn and inhibition zone were barely discernible; details: appearance of inhibition zone
Experimental: as §3, §4, §5, §6

Alternaria solani = test: disk diffusion assay, Alternaria solani; format: cell-based; design: key: fuzzy (F)--a zone that had a fuzzy edge and clear center surrounding the disc; hazy (H)--a zone that was hazy throughout; slightly hazy (S)--a zone in which low levels of growth were discernible throughout the inhibition zone; very hazy (V)--a zone in which the differences between the background lawn and inhibition zone were barely discernible; details: appearance of inhibition zone
Experimental: as §3, §4, §5, §6

Verticillium serrae = test: disk diffusion assay, Verticillium serrae; format: cell-based; design: key: fuzzy (F)--a zone that had a fuzzy edge and clear center surrounding the disc; hazy (H)--a zone that was hazy throughout; slightly hazy (S)--a zone in which low levels of growth were discernible throughout the inhibition zone; very hazy (V)--a zone in which the differences between the background lawn and inhibition zone were barely discernible; details: appearance of inhibition zone
Experimental: as §3, §4, §5, §6

Cryptococcus neoformans [2] = test: agar dilution assay (MIC) against expanded panel of 84 Cryptococcus neoformans isolates; format: cell-based; details: for MIC50: read-out: MIC50 (concentration at which 50% of the strains were inhibited); for MIC90: read-out: MIC90 (concentration at which 90% of the strains were inhibited)
Experimental: as §1, §2

Cochliobolus miyabeanus = test: disk diffusion assay, Cochliobolus miyabeanus; format: cell-based; design: key: fuzzy (F)--a zone that had a fuzzy edge and clear center surrounding the disc; hazy (H)--a zone that was hazy throughout; slightly hazy (S)--a zone in which low levels of growth were discernible throughout the inhibition zone; very hazy (V)--a zone in which the differences between the background lawn and inhibition zone were barely discernible; details: appearance of inhibition zone
Experimental: as §3, §4, §5, §6

Ceratocystis ulmi = test: disk diffusion assay, Ceratocystis ulmi; format: cell-based; design: key: fuzzy (F)--a zone that had a fuzzy edge and clear center surrounding the disc; hazy (H)--a zone that was hazy throughout; slightly hazy (S)--a zone in which low levels of growth were discernible throughout the inhibition zone; very hazy (V)--a zone in which the differences between the background lawn and inhibition zone were barely discernible; details: appearance of inhibition zone
Experimental: as §3, §4, §5, §6

[3] = system: certain yeasts, particularly the Cryptococcus species; test: activity against certain yeasts (statement); format: cell-based
Fusarium oxysporum = test: disk diffusion assay, Fusarium oxysporum; format: cell-based; design: key: fuzzy (F)--a zone that had a fuzzy edge and clear center surrounding the disc; hazy (H)--a zone that was hazy throughout; slightly hazy (S)--a zone in which low levels of growth were discernible throughout the inhibition zone; very hazy (V)--a zone in which the differences between the background lawn and inhibition zone were barely discernible; details: appearance of inhibition zone
Experimental: as §3, §4, §5, §6

Cryptococcus laurentii = test: disk diffusion assay, Cryptococcus laurentii; format: cell-based; design: key: fuzzy (F)--a zone that had a fuzzy edge and clear center surrounding the disc; hazy (H)--a zone that was hazy throughout; slightly hazy (S)--a zone in which low levels of growth were discernible throughout the inhibition zone; very hazy (V)--a zone in which the differences between the background lawn and inhibition zone were barely discernible; details: appearance of inhibition zone
Experimental: as §3, §4, §5, §6

For C[C@@H]1[C@H](O)[C@@H](C)/C=C/C=C/CC/C=C/C=C/C=C/C=C/C(O[C@H]2O[C@H](C)[C@@H](O)[C@H](N)[C@@H]2O)CC2O[C@](O)(CC(O)C(O)CCC(O)CC(O)CC(O)CC(=O)O[C@H]1C)CC(O)C2C(=O)O (stereo partly shown) [Nystatin, nystatin, reference compound], the “Minimum Inhibitory Concentration” value (Cryptococcus neoformans [1]; strain MY1051) was 1.0 µg/mL and the “Minimum Inhibitory Concentration” value (Cryptococcus neoformans [1]; strain MY1146) was 1.0 µg/mL.

With COc1ccc(CC2NC(=O)C=CCC(C(C)C3OC3c3ccccc3)OC(=O)C(CC(C)C)OC(=O)C(C)CNC2=O)cc1Cl (stereo not shown) [Compound I, 10-[(3-chloro 4methoxyphenyl)methyl]-6-methyl-3-(2-methylpropyl)-16-[1-(3-phenyloxiranyl)ethyl]-1,4-dioxa-8,11-diazacyclohexadec-13-ene-2,5,9,12-tetrone] the Zone qualifier (Aspergillus niger) was “S”, the Zone qualifier (Trichoderma lignorum) was “S” and the Zone qualifier (Phoma sp.) was “S”. For the same molecule, the activity against bacteria (Staphylococcus species) was “active”, the Zone qualifier (Penicillium sp.) was “S and F” and the solubility (solubility) was “soluble in organic solvents”. For the same molecule, the activity against bacteria (Serratia species) was “active”, the Zone qualifier (Ustilago zea) was “S” and the Zone qualifier (Aspergillus flavus) was “S”. For the same molecule, the Zone qualifier (Cercospora beticola) was “S”, the activity against bacteria (Erwinia species) was “active” and the Zone qualifier (Botrytis allii) was “S”. The MIC (Cryptococcus neoformans [1]; strain MY1051, read-out: Minimum Inhibitory Concentration) was at most 0.063 µg/mL, the “Minimum Inhibitory Concentration” value (Cryptococcus neoformans [1]; strain MY1146) was at most 0.063 µg/mL and the Zone qualifier (Cryptococcus albidus) was “S”. For the same molecule, the Zone qualifier (Scopulariopsis communes) was “H”, the Zone qualifier (Rhizomucor miehei) was “V” and the Zone qualifier (Trichoderma sp.) was “S”. For the same molecule, the Zone qualifier (Aspergillus fumigatus) was “S”, the Zone qualifier (Cephalosporium sp.) was “V” and the Zone qualifier (Alternaria solani) was “S”. For the same molecule, the Zone qualifier (Verticillium serrae) was “V”, the MIC (Cryptococcus neoformans [2]; read-out: G-MIC (geometric means of MIC)) was 0.03 µg/mL (≈ 0.0458 µM) and the MIC50 (Cryptococcus neoformans [2]) was 0.031 µg/mL (≈ 0.0473 µM). For the same molecule, the MIC90 (Cryptococcus neoformans [2]) was 0.031 µg/mL (≈ 0.0473 µM), the Zone qualifier (Cochliobolus miyabeanus) was “F” and the Zone qualifier (Ceratocystis ulmi) was “S”. For the same molecule, the “activity against certain yeasts” value [3] was “active”, the Zone qualifier (Fusarium oxysporum) was “F” and the Zone qualifier (Cryptococcus laurentii) was “H and S”.

Molecule C[C@@H]1[C@H](O)[C@@H](C)/C=C/C=C/C=C/C=C/C=C/C=C/C=C/[C@H](O[C@@H]2O[C@H](C)[C@@H](O)[C@H](N)[C@@H]2O)C[C@@H]2O[C@](O)(C[C@@H](O)C[C@@H](O)[C@H](O)CC[C@@H](O)C[C@@H](O)CC(=O)O[C@H]1C)C[C@H](O)[C@H]2C(=O)O [Amphotericin B, amphotericin B, reference compound] has an MIC50 (Cryptococcus neoformans [2]; 84 isolates) of 0.125 µg/mL (≈ 0.135 µM) and an MIC90 (Cryptococcus neoformans [2]; 84 isolates) of 0.25 µg/mL (≈ 0.271 µM).
